In patent US10093630B2, “Pyrazole compounds and methods of making and using same” (ABIDE THERAPEUTICS, INC., priority 2014, dated 2018) one finds inhibition and IC50 data, which are given here for six molecules.

What all share (assay): In vitro competitive activity-based protein profiling (gel-based, FP-Rh or HT-01 probe)
Holding throughout (type): biochemical

The target of one assay is T1, PLA2G7 (Mus musculus, UniProt Q60963).
T1 construct: Proteomes (mouse brain membrane fraction or cell lysates); from tissue; host or cells: mouse brain membrane fraction (or cell lysates, not specified)
T1 sequence (Q60963 22-440): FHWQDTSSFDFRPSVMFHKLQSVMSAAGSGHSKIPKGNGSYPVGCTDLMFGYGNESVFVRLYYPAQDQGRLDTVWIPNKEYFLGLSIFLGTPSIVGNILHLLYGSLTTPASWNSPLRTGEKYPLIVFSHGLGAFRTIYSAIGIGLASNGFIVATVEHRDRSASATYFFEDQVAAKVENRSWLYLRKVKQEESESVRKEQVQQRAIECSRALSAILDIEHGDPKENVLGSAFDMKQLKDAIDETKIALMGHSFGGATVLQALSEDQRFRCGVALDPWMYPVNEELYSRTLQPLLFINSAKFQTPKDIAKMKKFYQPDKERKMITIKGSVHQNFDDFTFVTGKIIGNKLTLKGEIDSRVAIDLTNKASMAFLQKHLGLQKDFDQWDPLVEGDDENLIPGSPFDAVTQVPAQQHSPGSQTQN
As to conditions: for inhibition at 1 µM: 1 μM inhibitor, read-out: % Inhibition at 1 μM, D = PLA2G7; for inhibition at 10 µM: 10 μM inhibitor, read-out: % Inhibition at 10 μM, D = PLA2G7. The protocol: (§1) In Vitro Competitive Activity-Based Protein Profiling.
(§2) Proteomes (mouse brain membrane fraction or cell lysates) (50 μL, 1.0 mg/mL total protein concentration) were preincubated with varying concentrations of inhibitors at 37° C. After 30 min, FP-Rh or HT-01 ([…], 50 μM in DMSO) was added and the mixture was incubated for another 30 min at 37° C. Reactions were quenched with SDS loading buffer (15 μL—4×) and run on SDS-PAGE. Following gel imaging, serine hydrolase activity was determined by measuring fluorescent intensity of gel bands corresponding to MAGL, ABHD6, FAAH, and PLA2G7 using ImageJ 1.43u software.

In a further assay the target is T2, FAAH (Mus musculus, UniProt O08914).
T2 construct: Proteomes (mouse brain membrane fraction or cell lysates); from tissue; host or cells: mouse brain membrane fraction (or cell lysates, not specified)
T2 sequence (O08914 1-579): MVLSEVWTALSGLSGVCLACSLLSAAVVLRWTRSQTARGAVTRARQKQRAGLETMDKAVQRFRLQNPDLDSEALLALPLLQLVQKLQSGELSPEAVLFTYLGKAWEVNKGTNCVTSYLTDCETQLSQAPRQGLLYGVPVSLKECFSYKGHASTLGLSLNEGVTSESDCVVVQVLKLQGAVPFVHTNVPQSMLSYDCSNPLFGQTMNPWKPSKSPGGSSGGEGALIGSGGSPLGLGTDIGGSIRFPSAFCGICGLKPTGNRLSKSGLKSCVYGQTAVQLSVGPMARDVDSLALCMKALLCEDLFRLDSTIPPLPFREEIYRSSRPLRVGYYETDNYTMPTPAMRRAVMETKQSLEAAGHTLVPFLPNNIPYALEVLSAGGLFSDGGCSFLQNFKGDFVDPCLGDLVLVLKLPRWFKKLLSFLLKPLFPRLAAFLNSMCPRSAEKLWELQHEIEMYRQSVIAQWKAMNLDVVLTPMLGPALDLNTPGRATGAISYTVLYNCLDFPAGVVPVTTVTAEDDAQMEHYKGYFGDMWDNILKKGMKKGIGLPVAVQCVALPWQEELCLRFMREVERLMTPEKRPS
As to conditions: for inhibition at 1 µM: 1 μM inhibitor, read-out: % Inhibition at 1 μM, B = FAAH; for inhibition at 10 µM: 10 μM inhibitor, read-out: % Inhibition at 10 μM, B = FAAH. The protocol: as §1, §2

The target in a further assay is T3, MAGL (Mus musculus, UniProt O35678).
T3 construct: Proteomes (mouse brain membrane fraction or cell lysates); from tissue; host or cells: mouse brain membrane fraction (or cell lysates, not specified)
T3 sequence (O35678 1-303): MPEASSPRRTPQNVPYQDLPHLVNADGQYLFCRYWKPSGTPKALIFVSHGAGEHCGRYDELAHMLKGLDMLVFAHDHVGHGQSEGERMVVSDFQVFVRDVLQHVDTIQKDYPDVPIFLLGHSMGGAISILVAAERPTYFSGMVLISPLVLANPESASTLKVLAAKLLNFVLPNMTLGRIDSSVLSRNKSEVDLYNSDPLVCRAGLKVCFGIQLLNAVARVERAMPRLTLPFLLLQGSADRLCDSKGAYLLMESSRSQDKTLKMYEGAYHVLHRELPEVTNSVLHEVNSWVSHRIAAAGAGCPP
The following applies: for inhibition at 1 µM: 1 μM inhibitor; for inhibition at 10 µM: 10 μM inhibitor. The protocol: as §1, §2

The target in the next assay is T4, ABHD6 (Mus musculus, UniProt Q8R2Y0).
T4 construct: Proteomes (mouse brain membrane fraction or cell lysates); from tissue; host or cells: mouse brain membrane fraction (or cell lysates, not specified)
T4 sequence (Q8R2Y0 1-336): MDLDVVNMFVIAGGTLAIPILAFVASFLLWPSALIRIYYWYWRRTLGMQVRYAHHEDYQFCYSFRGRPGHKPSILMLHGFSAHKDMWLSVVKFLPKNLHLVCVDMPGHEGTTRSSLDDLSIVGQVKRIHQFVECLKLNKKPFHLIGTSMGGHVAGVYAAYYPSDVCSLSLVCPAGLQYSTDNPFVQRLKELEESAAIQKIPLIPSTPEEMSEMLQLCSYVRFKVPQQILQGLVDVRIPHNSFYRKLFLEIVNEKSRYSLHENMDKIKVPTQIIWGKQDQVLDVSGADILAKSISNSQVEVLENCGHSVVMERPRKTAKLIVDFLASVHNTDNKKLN
As to conditions: for inhibition at 1 µM: 1 μM inhibitor, read-out: % Inhibition at 1 μM, C = ABHD6; for inhibition at 10 µM: 10 μM inhibitor, read-out: % Inhibition at 10 μM, C = ABHD6. The protocol:
as §1, §2

By inhibition is commonly meant the drop in the measured response relative to a control, in per cent. As for `CN(Cc1cccc(-c2ccncc2)c1)C(=O)n1cc(C#N)cn1` [Example 221, 4-Cyano-N-methyl-N-(3-(pyridin-4-yl)benzyl)-1H-pyrazole-1-carboxamide], the inhibition at 1 µM is 25 to 75% on PLA2G7, greater than 75% on FAAH, greater than 75% at MAGL and greater than 75% at ABHD6. Further, the inhibition at 10 µM is less than 25% at PLA2G7, greater than 75% at FAAH, greater than 75% on MAGL and greater than 75% at ABHD6.

Regarding `Cc1ccc(N2CCN(C(=O)n3cc(C(F)(F)F)cn3)CC2)cc1` [Example 232, (4-p-Tolylpiperazin-1-yl)(4-(trifluoromethyl)-1H-pyrazol-1-yl)methanone], the inhibition at 1 µM at PLA2G7, on FAAH, at MAGL and at ABHD6 was greater than 75% throughout. In addition, the inhibition at 10 µM on PLA2G7, on FAAH, on MAGL and on ABHD6 was greater than 75% each time.

In general, IC50 refers to the midpoint of a concentration-inhibition curve. Turning to `O=C(N1CCCN(Cc2ccccc2)CC1)n1cc(C(F)(F)F)cn1` [Example 157, (4-Benzyl-1,4-diazepan-1-yl)(4-(trifluoromethyl)-1H-pyrazol-1-yl)methanone], the inhibition at 1 µM is less than 25% at PLA2G7, greater than 75% at FAAH, greater than 75% on MAGL and greater than 75% on ABHD6. The inhibition at 10 µM at PLA2G7, on FAAH, on MAGL and at ABHD6 was greater than 75% each time. Further, the IC50 is greater than 1000 nM on PLA2G7 (mouse brain membrane fraction or cell lysates, 30 min preincubation at 37° C.); 100 to 1000 nM on FAAH (mouse brain membrane fraction or cell lysates, 30 min preincubation at 37° C., read-out: Mouse (IC50 value, nM) FAAH); greater than 1000 nM on MAGL (mouse brain membrane fraction or cell lysates, 30 min preincubation at 37° C., read-out: Mouse (IC50 value, nM) MAGL); greater than 1000 nM at ABHD6 (mouse brain membrane fraction or cell lysates, 30 min preincubation at 37° C., read-out: Mouse (IC50 value, nM) ABHD6).

Take `O=C(N1CCN(Cc2ccccn2)CC1)n1cc(-c2ccccc2)cn1` [Example 61, (4-Phenyl-1H-pyrazol-1-yl)(4-(pyridin-2-ylmethyl)piperazin-1-yl)methanone]: the inhibition at 1 µM at PLA2G7 and on ABHD6 was greater than 75% in each case. The inhibition at 10 µM is greater than 75% on PLA2G7, greater than 75% on FAAH, less than 25% at MAGL and greater than 75% on ABHD6.

On to `O=C(N1CCN(c2ccc(Cl)cc2)CC1)n1cc(C(F)(F)F)cn1` [Example 229, (4-(4-Chlorophenyl)piperazin-1-yl)(4-(trifluoromethyl)-1H-pyrazol-1-yl)methanone], for which the inhibition at 1 µM at PLA2G7, on FAAH, at MAGL and at ABHD6 was greater than 75% throughout. In addition, the inhibition at 10 µM on PLA2G7, at FAAH, on MAGL and at ABHD6 was greater than 75% in each case.

For the molecule `Cc1cnn(C(=O)N(C)CCN(C)C(=O)OC(C)(C)C)c1` [Example 29, tert-Butyl (2-(N,4-dimethyl-1H-pyrazole-1-carboxamido)ethyl)(methyl)carbamate], the inhibition at 1 µM on PLA2G7, on FAAH, on MAGL and on ABHD6 was less than 25% each time. The inhibition at 10 µM at PLA2G7 is less than 25%; on FAAH it was 25 to 75%; on MAGL it was 25 to 75%; on ABHD6, greater than 75%.
